According to US9695154B2, “Heteroaryl inhibitors of sumo activating enzyme” (MILLENNIUM PHARMACEUTICALS, INC., priority 2013, dated 2017):

Target: T1, recombinant human SAE enzyme (Homo sapiens, UniProt Q9UBT2)
T1 sequence (Q9UBT2 1-640): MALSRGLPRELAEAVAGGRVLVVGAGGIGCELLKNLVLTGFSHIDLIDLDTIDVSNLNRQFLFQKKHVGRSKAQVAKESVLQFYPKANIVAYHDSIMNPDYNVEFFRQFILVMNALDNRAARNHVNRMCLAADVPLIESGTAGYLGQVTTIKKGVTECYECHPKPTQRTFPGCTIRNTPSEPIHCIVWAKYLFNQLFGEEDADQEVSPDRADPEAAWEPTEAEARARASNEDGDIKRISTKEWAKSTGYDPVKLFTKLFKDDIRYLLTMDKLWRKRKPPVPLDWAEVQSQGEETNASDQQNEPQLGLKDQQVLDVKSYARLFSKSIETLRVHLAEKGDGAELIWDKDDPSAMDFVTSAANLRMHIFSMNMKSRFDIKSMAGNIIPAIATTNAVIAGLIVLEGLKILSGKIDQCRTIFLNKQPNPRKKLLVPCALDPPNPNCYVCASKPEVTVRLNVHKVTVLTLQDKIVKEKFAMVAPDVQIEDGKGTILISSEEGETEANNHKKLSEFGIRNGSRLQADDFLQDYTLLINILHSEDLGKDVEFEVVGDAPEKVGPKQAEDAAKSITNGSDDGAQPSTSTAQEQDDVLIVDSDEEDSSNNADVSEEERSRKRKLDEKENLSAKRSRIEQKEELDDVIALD
T1 sequence (Q9UBE0 1-346 partner): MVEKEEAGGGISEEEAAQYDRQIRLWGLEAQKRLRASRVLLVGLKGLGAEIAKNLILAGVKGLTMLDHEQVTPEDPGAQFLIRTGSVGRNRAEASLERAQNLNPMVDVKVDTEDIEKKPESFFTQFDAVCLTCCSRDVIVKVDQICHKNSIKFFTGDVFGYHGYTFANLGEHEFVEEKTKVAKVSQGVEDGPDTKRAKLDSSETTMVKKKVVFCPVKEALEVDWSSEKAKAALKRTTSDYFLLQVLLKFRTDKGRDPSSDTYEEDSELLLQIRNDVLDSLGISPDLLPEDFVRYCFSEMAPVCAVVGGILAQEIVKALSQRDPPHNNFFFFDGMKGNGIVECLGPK
Assay: SAE HTRF Enzyme Assay
Format: biochemical
Settings: for IC50: class symbols A-C; for inhibition at 0.111 µM: compound concentration 0.111 μM, read-out: Percent Inhibition
How it was run: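 Measured as FRET after a 2 h antibody step: SAE (0.11 nM) thioester transfer of Sumo-Flag to Ubc9-GST, 0.5 μM ATP, 24° C for 105 min, quenched with 20 mM EDTA. Output is IC50 or percent inhibition at a single concentration.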

| SMILES | IC50 | inhibition at 0.111 µM |
| --- | --- | --- |
| Cc1cc(C(=O)c2cncnc2N[C@@H]2C[C@H](COS(N)(=O)=O)[C@@H](O)[C@H]2O)nn1Cc1ccc(C(F)(F)F)o1 [Compound I-138, [(1R,2R,3S,4R)-2,3-Dihydroxy-4-({5-[(5-methyl-1-{[5-(trifluoromethyl)-2-furyl]methyl}-1H-pyrazol-3-yl)carbonyl]pyrimidin-4-yl}amino)cyclopentyl]methyl sulfamate] | < 0.01 µM | 99% |
| NS(=O)(=O)OC[C@H]1C[C@@H](Nc2ncncc2C(=O)c2nn(Cc3ccccc3)cc2Cl)[C@H](O)[C@@H]1O [Compound I-139, [(1R,2R,3S,4R)-4-({5-[(1-benzyl-4-chloro-1H-pyrazol-3-yl)carbonyl]pyrimidin-4-yl}amino)-2,3-dihydroxycyclopentyl]methyl sulfamate] | < 0.01 µM | 86% |
| NS(=O)(=O)OC[C@H]1C[C@@H](Nc2ncncc2C(=O)c2ccn(Cc3cccc(C(F)(F)F)c3)n2)C[C@@H]1O [Compound I-140, [(1R,2S,4R)-2-hydroxy-4-{[5-({1-[3-(trifluoromethyl)benzyl]-1H-pyrazol-3-yl}carbonyl)pyrimidin-4-yl]amino}cyclopentyl]methyl sulfamate] | < 0.01 µM | 98% |
| NS(=O)(=O)OC[C@H]1C[C@@H](Nc2ncncc2C(=O)c2ccn(Cc3ccc(F)c(Cl)c3)c2)[C@@H](F)[C@@H]1O [Compound I-141, {(1R,2R,3R,4R)-4-[(5-{[1-(3-chloro-4-fluorobenzyl)-1H-pyrrol-3-yl]carbonyl}pyrimidin-4-yl)amino]-3-fluoro-2-hydroxycyclopentyl}methy1 sulfamate] | < 0.01 µM | 99% |
| NS(=O)(=O)OC[C@H]1C[C@@H](Nc2ncncc2C(=O)c2ccn(Cc3ccccc3)n2)[C@H](O)[C@@H]1O [Compound I-142, [(1R,2R,3S,4R)-4-({5-[(1-Benzyl-1H-pyrazol-3-yl)carbonyl]pyrimidin-4-yl}amino)-2,3-dihydroxycyclopentyl]methyl sulfamate] | < 0.01 µM | 99% |
| NS(=O)(=O)OC[C@H]1C[C@@H](Nc2ncncc2C(=O)c2ccn(Cc3ccc(F)c(Br)c3)c2)[C@@H](F)[C@@H]1O [Compound I-143, {(1R,2R,3R,4R)-4-[(5-{[1-(3-bromo-4-fluorobenzyl)-1H-pyrrol-3-yl]carbonyl}pyrimidin-4-yl)amino]-3-fluoro-2-hydroxycyclopentyl}methyl sulfamate] | < 0.01 µM | 99% |
| NS(=O)(=O)OC[C@H]1C[C@@H](Nc2ncncc2C(=O)c2ccn(Cc3ccc4nccn4c3)n2)C[C@@H]1O [Compound I-144, {(1R,2S,4R)-2-hydroxy-4-[(5-{[1-(imidazo[1,2-a]pyridin-6-ylmethyl)-1H-pyrazol-3-yl]carbonyl}pyrimidin-4-yl)amino]cyclopentyl}methyl sulfamate] | < 0.01 µM | 97% |
| NS(=O)(=O)OC[C@H]1C[C@@H](Nc2ncncc2C(=O)c2ccn(CC3=CCCOC3)n2)C[C@@H]1O [Compound I-145, {(1R,2S,4R)-4-[(5-{[1-(5,6-dihydro-2H-pyran-3-ylmethyl)-1H-pyrazol-3-yl]carbonyl}pyrimidin-4-yl)amino]-2-hydroxycyclopentyl}methyl sulfamate] | 0.01 to 0.1 µM | 65% |
| NS(=O)(=O)OC[C@H]1C[C@@H](Nc2ncncc2C(=O)c2ccn(Cc3ccc(Cl)cc3F)n2)[C@H](O)[C@@H]1O [Compound I-146, {(1R,2R,3S,4R)-4-[(5-{[1-(4-chloro-2-fluorobenzyl)-1H-pyrazol-3-yl]carbonyl}pyrimidin-4-yl)amino]-2,3-dihydroxycyclopentyl}methyl sulfamate] | < 0.01 µM | 99% |
| NS(=O)(=O)OC[C@H]1C[C@@H](Nc2ncncc2C(=O)c2ccn(Cc3cccc(Cl)c3)c2)[C@@H](F)[C@@H]1O [Compound I-147, {(1R,2R,3R,4R)-4-[(5-{[1-(3-chlorobenzyl)-1H-pyrrol-3-yl]carbonyl}pyrimidin-4-yl)amino]-3-fluoro-2-hydroxycyclopentyl}methyl sulfamate] | < 0.01 µM | > 99% |
| NS(=O)(=O)OC[C@H]1C[C@@H](Nc2ncncc2C(=O)c2cc(Cl)n(Cc3cc(C(F)(F)F)on3)c2)[C@@H](F)[C@@H]1O [Compound I-148, [(1R,2R,3R,4R)-4-({5-[(5-chloro-1-{[5-(trifluoromethyl)isoxazol-3-yl]methyl}-1H-pyrrol-3-yl)carbonyl]pyrimidin-4-yl}amino)-3-fluoro-2-hydroxycyclopentyl]methyl sulfamate] | 0.01 to 0.1 µM | 85% |
| Cc1cn(Cc2cccc(Br)c2)cc1C(=O)c1cncnc1N[C@@H]1C[C@H](COS(N)(=O)=O)[C@@H](O)[C@@H]1F [Compound I-149, {(1R,2R,3R,4R)-4-[(5-{[1-(3-bromobenzyl)-4-methyl-1H-pyrrol-3-yl]carbonyl}pyrimidin-4-yl)amino]-3-fluoro-2-hydroxycyclopentyl}methyl sulfamate] | 0.01 to 0.1 µM | 85% |
| NS(=O)(=O)OC[C@H]1C[C@@H](Nc2ncncc2C(=O)c2ccn(Cc3ccccn3)n2)[C@H](O)[C@@H]1O [Compound I-150, {(1R,2R,3S,4R)-2,3-dihydroxy-4-[(5-{[1-(pyridin-2-ylmethyl)-1H-pyrazol-3-yl]carbonyl}pyrimidin-4-yl)amino]cyclopentyl}methyl sulfamate] | < 0.01 µM | 98% |
| COC(C)(C)C#CCn1ccc(C(=O)c2cncnc2N[C@@H]2C[C@H](COS(N)(=O)=O)[C@@H](O)C2)n1 [Compound I-151, {(1R,2S,4R)-2-hydroxy-4-[(5-{[1-(4-methoxy-4-methylpent-2-yn-1-yl)-1H-pyrazol-3-yl]carbonyl}pyrimidin-4-yl)amino]cyclopentyl}methyl sulfamate] | 0.01 to 0.1 µM | 54% |
| NS(=O)(=O)OC[C@H]1C[C@@H](Nc2ncncc2C(=O)c2ccn(Cc3ccc(Cl)c(OC(F)(F)F)c3)n2)C[C@@H]1O [Compound I-152, [(1R,2S,4R)-4-{[5-({1-[4-Chloro-3-(trifluoromethoxy)benzyl]-1H-pyrazol-3-yl}carbonyl)pyrimidin-4-yl]amino}-2-hydroxycyclopentyl]methyl sulfamate] | < 0.01 µM | 94% |
| CC(C)CC#CCn1ccc(C(=O)c2cncnc2N[C@@H]2C[C@H](COS(N)(=O)=O)[C@@H](O)C2)n1 [Compound I-153, {(1R,2S,4R)-2-hydroxy-4-[(5-{[1-(5-methylhex-2-yn-1-yl)-1H-pyrazol-3-yl]carbonyl}pyrimidin-4-yl)amino]cyclopentyl}methyl sulfamate] | 0.01 to 0.1 µM | 82% |
| CC(C)(O)C#CCn1ccc(C(=O)c2cncnc2N[C@@H]2C[C@H](COS(N)(=O)=O)[C@@H](O)C2)n1 [Compound I-154, {(1R,2S,4R)-2-hydroxy-4-[(5-{[1-(4-hydroxy-4-methylpent-2-yn-1-yl)-1H-pyrazol-3-yl]carbonyl}pyrimidin-4-yl)amino]cyclopentyl}methyl sulfamate] | 0.1 to 1 µM | 39% |
| NS(=O)(=O)OC[C@H]1C[C@@H](Nc2ncncc2C(=O)c2ccn(Cc3cc(C(F)(F)F)cc(C(F)(F)F)c3)n2)[C@H](O)[C@@H]1O [Compound I-155, [(1R,2R,3S,4R)-4-{[5-({1-[3,5-bis(trifluoromethyl)benzyl]-1H-pyrazol-3-yl}carbonyl)pyrimidin-4-yl]amino}-2,3-dihydroxycyclopentyl]methyl sulfamate] | < 0.01 µM | 97% |
| NS(=O)(=O)OC[C@H]1C[C@@H](Nc2ncncc2C(=O)c2ccn(Cc3ccc(Cl)c(C(F)(F)F)c3)n2)[C@@H](F)[C@@H]1O [Compound I-156, [(1R,2R,3R,4R)-4-{[5-({1-[4-chloro-3-(trifluoromethyl)benzyl]-1H-pyrazol-3-yl}carbonyl)pyrimidin-4-yl]amino}-3-fluoro-2-hydroxycyclopentyl]methyl sulfamate] | 0.01 to 0.1 µM | 90% |
| CN(c1ncncc1C(=O)c1ccn(Cc2cccc(Br)c2)n1)[C@@H]1C[C@H](COS(N)(=O)=O)[C@@H](O)C1 [Compound I-157, {(1R,2S,4R)-4-[(5-{[1-(3-Bromobenzyl)-1H-pyrazol-3-yl]carbonyl}pyrimidin-4-yl)(methyl)amino]-2-hydroxycyclopentyl}methyl sulfamate] | 0.01 to 0.1 µM | 67% |
